From patent US8840938B2, “Bioavailability enhancing composition” (priority 2011, dated 2014)
Read-outs that look alike come from different tables or passages of the source.

Columns and labels:
TRPV1 = TRPV1 (Homo sapiens, UniProt Q8NER1); assay: Scoville Heat Unit (SHU) as a measure of TRPV1 activation; details: for Adjusted SHU: SHU of pure agonist times percent agonist in the herb, totals per herb; for SHU of pure Agonist: pure TRPV1 agonist, per mg
Protocol: SHU as used herein as a measure of TRPV1 activation. SHU mg is calculated as the SHU of a TRPV1 agonist multiplied by the milligrams of the TRPV1 agonist in a compound.

[1] = cited from earlier work; for Peak theophylline plasma levels / levels of theophylline (absorption) / mean residence times of theophylline: rabbits, oral theophylline 20 mg/kg
[2] = concomitant ground capsicum fruit suspension

TRPV1, sequence (Q8NER1 whole entry, species assumed): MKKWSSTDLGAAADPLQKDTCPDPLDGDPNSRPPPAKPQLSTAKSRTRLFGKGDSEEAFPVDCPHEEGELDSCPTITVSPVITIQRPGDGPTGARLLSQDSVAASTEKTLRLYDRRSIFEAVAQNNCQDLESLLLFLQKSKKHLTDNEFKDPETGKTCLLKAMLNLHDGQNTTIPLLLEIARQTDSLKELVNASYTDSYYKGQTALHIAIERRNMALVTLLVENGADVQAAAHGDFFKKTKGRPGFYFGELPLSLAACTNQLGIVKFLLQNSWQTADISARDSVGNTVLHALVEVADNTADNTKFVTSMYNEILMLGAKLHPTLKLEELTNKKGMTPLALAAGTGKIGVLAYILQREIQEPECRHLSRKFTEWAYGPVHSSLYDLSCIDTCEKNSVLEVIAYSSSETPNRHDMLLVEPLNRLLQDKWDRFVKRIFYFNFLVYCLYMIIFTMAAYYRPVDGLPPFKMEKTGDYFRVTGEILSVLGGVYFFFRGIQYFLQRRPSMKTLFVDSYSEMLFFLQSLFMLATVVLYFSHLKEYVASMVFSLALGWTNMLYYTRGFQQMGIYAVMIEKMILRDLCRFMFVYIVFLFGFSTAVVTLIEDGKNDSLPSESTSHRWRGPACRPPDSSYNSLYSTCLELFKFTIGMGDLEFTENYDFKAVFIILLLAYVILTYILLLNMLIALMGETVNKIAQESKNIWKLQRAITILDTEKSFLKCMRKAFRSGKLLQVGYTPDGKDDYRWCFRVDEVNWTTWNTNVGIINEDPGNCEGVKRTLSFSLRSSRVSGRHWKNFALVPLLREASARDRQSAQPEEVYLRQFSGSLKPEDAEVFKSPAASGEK

Adjusted SHU (TRPV1) | SHU of pure Agonist (TRPV1) | Compound | also measured
49 SHU | 70,000 SHU | C/C=C/C=C/C=C/CC/C=C/C(=O)NCC(C)C [β-sanshool] | –
9,600 SHU | 160,000 SHU | CCCCC/C=C/C(=O)CCc1ccc(O)c(OC)c1 [Formulation 6-shogaol, 6-shogaol] | –
22 SHU | 110,000 SHU | C/C=C/C=C/C=C/CC/C=C/C=C/C(=O)NCC(C)C [δ-sanshool] | –
619 SHU | 26,000 SHU | C/C=C/C=C/C=C\CC/C=C/C(=O)NCC(C)(C)O [α-hydroxy-sanshool] | –
40,000 SHU | 16,000,000 SHU | COc1cc(CNC(=O)CCCC/C=C/C(C)C)ccc1O [capsaicin] | –
368 SHU | 80,000 SHU | C/C=C/C=C/C=C\CC/C=C/C(=O)NCC(C)C [α-sanshool] | –
– | – | Cn1c(=O)c2[nH]cnc2n(C)c1=O [theophylline] | Peak theophylline plasma levels [1, 2]: 8.78 ± 0.98 mg/L; levels of theophylline (absorption) [1, 2]: 138.32+/−17.27 mg H/liter; mean residence times of theophylline [1, 2]: 20.98+/−5.75 H; Peak theophylline plasma levels ([1]; without capsicum): 6.65 ± 0.76 mg/L; levels of theophylline (absorption) ([1]; without capsicum): 86.06+/−9.78 mg H/liter; mean residence times of theophylline ([1]; without capsicum): 14.94+/−2.97 H; theophylline plasma levels after second administration of capsicum suspension ([1]; second capsicum suspension 11 hours later, every rabbit): new rise
35 SHU | 13,000 SHU | C/C=C/C=C/C=C/CC/C=C/C(=O)NCC(C)(C)O [β-hydroxy-sanshool] | –
3,600 SHU | 60,000 SHU | CCCCC[C@H](O)CC(=O)CCc1ccc(O)c(OC)c1 [Formulation 6-gingerol, 6-gingerol] | –
209 SHU | 110,000 SHU | C/C=C/C=C/C=C\CC/C=C/C=C/C(=O)NCC(C)C [γ-sanshool] | –
